Some targets named below: CK2a2 (Homo sapiens, UniProt P19784); CaMK2b (Homo sapiens, UniProt Q13554); EphA2 (Homo sapiens, UniProt P29317); EphA4 (Homo sapiens, UniProt P54764); EphA7 (Homo sapiens, UniProt Q15375); PIM3 (Homo sapiens, UniProt Q86V86).
Holding throughout (conditions): binder
In another assay the target is T1, MYT1 (Homo sapiens, UniProt Q99640).
T1 sequence (Q99640 1-499): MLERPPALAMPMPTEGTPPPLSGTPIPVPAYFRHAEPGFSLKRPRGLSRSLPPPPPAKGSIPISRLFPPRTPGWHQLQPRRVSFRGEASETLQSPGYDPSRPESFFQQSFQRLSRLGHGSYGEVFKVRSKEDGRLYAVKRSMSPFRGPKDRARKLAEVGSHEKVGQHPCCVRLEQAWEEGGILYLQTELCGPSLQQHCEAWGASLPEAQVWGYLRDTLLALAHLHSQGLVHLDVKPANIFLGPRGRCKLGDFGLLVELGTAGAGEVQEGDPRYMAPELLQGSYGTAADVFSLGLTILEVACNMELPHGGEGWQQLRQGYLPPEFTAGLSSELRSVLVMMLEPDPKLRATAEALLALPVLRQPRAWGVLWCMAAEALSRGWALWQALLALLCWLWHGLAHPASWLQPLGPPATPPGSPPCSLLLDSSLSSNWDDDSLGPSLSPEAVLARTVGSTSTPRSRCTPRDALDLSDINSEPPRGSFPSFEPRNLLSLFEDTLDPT

The target of the next assay is T2, TLK1 (Homo sapiens, UniProt Q9UKI8).
T2 sequence (Q9UKI8 1-766): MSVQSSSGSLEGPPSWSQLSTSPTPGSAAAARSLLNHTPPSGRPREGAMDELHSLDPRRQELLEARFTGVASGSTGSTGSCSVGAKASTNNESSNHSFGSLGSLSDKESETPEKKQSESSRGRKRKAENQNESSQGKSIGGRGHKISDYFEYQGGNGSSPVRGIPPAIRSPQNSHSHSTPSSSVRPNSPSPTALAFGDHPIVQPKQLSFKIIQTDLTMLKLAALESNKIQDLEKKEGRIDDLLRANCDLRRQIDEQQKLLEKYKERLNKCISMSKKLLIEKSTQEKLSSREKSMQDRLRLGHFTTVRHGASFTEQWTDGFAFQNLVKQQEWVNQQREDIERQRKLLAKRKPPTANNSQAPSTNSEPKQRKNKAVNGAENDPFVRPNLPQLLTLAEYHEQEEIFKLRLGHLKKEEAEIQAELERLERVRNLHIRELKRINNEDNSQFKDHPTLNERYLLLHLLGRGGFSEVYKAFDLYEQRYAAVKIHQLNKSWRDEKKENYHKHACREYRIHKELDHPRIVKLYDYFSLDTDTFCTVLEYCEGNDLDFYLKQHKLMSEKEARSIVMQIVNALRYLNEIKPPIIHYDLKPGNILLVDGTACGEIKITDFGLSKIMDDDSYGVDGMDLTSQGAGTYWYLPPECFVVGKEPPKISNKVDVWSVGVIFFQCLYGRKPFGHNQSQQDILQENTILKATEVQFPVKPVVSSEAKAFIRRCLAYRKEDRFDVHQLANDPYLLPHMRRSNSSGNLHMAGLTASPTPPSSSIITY

Another assay has as its target T3, ULK3 (Homo sapiens, UniProt Q6PHR2).
T3 sequence (Q6PHR2 1-472): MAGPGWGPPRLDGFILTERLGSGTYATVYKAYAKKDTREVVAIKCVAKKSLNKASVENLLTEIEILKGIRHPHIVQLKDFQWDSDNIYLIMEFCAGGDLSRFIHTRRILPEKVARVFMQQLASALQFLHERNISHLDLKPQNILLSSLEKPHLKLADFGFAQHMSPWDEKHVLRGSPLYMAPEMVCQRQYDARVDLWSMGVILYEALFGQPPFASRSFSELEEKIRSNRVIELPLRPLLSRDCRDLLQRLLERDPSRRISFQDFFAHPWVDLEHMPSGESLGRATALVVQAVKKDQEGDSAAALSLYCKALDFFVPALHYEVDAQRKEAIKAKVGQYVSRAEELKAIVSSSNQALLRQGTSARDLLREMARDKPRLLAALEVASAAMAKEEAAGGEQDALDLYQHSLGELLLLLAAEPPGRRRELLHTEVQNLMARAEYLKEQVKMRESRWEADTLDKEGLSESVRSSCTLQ

Sequence of EphA7 (Q15375 whole entry): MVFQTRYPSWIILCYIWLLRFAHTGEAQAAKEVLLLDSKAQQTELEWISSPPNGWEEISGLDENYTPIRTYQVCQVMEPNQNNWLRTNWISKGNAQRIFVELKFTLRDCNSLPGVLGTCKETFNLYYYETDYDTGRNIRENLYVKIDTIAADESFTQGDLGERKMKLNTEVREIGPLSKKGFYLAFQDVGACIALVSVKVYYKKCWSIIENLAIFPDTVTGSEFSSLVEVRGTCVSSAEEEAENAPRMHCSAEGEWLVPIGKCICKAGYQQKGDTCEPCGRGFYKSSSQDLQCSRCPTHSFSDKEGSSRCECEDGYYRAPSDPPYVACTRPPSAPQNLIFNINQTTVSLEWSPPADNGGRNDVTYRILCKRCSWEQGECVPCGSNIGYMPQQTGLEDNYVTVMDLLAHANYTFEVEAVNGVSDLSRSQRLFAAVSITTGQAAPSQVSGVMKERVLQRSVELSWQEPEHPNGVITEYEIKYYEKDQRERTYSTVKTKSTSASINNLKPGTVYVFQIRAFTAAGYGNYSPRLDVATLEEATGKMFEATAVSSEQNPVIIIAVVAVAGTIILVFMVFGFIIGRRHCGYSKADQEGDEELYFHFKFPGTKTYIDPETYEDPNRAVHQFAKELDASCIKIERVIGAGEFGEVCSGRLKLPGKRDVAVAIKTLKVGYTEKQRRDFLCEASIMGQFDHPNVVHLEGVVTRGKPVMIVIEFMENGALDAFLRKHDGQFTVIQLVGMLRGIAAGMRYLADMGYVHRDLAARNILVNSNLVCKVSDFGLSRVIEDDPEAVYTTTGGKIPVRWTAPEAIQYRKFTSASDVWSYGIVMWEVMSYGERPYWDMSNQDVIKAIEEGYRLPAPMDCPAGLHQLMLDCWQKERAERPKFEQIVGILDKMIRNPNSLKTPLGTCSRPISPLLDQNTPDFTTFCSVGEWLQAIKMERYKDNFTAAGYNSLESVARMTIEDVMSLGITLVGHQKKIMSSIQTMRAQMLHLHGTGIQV
Sequence of EphA2 (P29317 whole entry): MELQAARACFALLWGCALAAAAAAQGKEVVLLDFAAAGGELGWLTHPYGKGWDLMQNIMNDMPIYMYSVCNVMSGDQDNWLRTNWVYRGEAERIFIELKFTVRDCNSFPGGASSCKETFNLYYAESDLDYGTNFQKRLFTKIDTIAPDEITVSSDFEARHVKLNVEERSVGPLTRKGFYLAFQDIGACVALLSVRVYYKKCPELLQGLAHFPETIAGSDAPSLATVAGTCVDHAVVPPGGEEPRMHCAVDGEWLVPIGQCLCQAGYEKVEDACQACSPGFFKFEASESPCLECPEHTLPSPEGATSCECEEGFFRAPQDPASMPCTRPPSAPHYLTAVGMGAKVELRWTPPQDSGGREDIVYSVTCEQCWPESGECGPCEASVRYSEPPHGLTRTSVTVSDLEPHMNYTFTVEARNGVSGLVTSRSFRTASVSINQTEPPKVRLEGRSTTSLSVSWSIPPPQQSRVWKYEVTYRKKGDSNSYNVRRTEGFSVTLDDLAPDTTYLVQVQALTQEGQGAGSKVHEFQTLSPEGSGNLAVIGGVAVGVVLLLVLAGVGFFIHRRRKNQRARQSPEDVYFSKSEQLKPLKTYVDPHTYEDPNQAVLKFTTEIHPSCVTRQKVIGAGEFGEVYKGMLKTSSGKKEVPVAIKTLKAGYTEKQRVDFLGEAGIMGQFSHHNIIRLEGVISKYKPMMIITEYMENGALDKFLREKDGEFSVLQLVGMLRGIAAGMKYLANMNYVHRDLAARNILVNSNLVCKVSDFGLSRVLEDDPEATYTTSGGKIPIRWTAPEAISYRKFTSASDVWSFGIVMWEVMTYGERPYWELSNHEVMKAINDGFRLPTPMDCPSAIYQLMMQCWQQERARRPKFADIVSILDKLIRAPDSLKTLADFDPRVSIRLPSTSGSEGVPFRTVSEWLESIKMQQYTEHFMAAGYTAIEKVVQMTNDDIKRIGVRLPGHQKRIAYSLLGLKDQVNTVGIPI
Sequence of EphA4 (P54764 whole entry): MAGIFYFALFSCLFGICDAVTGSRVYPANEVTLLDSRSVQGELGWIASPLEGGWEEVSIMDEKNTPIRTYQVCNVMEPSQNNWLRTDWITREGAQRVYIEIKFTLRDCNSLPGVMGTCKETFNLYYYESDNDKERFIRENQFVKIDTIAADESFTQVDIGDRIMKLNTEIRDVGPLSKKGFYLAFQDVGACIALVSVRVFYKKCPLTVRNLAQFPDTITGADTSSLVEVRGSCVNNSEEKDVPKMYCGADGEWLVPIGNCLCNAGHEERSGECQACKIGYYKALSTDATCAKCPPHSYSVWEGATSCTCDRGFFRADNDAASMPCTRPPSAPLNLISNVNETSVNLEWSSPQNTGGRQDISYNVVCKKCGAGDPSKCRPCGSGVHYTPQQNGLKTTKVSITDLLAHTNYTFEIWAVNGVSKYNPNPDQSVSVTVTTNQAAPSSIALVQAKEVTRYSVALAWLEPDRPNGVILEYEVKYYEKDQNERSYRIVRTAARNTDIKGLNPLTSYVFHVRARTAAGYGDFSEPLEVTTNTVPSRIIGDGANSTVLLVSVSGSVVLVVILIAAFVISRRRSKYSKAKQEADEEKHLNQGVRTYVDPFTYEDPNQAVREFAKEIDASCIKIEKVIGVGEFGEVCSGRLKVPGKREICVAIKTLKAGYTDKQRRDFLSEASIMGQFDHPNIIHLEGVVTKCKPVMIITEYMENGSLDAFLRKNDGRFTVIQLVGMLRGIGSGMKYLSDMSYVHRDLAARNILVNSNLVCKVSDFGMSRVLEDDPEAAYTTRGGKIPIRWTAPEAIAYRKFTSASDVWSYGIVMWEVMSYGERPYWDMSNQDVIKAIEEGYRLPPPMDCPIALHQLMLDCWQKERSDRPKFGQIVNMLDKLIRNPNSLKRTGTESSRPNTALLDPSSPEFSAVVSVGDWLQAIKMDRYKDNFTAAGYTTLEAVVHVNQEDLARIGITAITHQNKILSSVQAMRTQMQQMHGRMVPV
Sequence of CK2a2 (P19784 whole entry): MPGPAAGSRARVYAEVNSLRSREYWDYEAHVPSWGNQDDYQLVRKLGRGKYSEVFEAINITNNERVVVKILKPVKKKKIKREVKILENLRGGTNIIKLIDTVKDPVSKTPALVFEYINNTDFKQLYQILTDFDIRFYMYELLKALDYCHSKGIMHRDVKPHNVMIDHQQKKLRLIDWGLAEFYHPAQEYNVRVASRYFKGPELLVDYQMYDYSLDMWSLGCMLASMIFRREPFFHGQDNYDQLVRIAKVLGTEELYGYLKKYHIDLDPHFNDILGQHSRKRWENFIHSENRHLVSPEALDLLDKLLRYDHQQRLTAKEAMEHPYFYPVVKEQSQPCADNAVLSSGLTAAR
Sequence of CaMK2b (Q13554 whole entry): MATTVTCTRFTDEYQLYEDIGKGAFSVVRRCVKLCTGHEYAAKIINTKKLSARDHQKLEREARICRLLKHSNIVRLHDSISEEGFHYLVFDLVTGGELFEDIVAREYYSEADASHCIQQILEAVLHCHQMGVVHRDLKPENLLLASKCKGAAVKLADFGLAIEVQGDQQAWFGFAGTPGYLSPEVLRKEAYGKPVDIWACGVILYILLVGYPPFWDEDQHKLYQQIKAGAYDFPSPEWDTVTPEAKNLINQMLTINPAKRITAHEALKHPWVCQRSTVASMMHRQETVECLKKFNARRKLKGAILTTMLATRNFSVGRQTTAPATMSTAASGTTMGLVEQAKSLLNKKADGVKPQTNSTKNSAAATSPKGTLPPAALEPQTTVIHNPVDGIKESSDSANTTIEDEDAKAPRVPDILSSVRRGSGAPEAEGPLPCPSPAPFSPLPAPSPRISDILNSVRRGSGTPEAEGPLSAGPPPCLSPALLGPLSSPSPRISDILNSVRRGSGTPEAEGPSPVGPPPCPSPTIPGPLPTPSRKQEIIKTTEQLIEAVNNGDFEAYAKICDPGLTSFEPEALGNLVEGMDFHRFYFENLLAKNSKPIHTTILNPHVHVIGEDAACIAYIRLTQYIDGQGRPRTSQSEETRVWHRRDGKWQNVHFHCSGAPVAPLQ

On to `Cc1cccc(-c2ccc(-c3cc4cnc(Nc5ccc(F)c(CO)c5)nc4n(CCCCN)c3=O)c(Cl)c2)n1` [compound 33, 8-(4-Aminobutyl)-6-(2-chloro-4-(6-methylpyridin-2-yl)phenyl)-2-((4-fluoro-3-(hydroxymethyl)phenyl)amino)pyrido[2,3-d]pyrimidin-7(8H)-one], for which the “dTm 33” value on CK2a2 is -1.2 °C; on CaMK2b, -0.2 °C; on EphA2, 8.3 °C; on EphA4, 3.5 °C; on EphA7 it was 5.3 °C; on MYT1, -1.8 °C. Also, the “dTm 33” value at PIM3 was 4.6 °C; on TLK1, -0.8 °C; at ULK3 it was 13.9 °C.
Turning to `COc1ccc(O)c(Nc2ncc3cc(-c4ccc(-c5cccc(C)n5)cc4Cl)c(=O)n(CCCCN)c3n2)c1` [compound 34, 8-(4-Aminobutyl)-6-(2-chloro-4-(6-methylpyridin-2-yl)phenyl)-2-((2-hydroxy-5-methoxy-phenyl)amino)pyrido[2,3-d]pyrimidin-7(8H)-one], the “dTm 34” value is 0.1 °C on CK2a2; -0.8 °C on CaMK2b; 3.9 °C on EphA2; 2.5 °C on EphA4; 3.4 °C at EphA7; -2.7 °C at MYT1. The “dTm 34” value at PIM3 is 2.4 °C; at TLK1, -1.1 °C; at ULK3 it was 8.3 °C.
On to `COc1cc(N2CCOCC2)ccc1Nc1ncc2cc(-c3ccc(-c4cccc(C)n4)cc3Cl)c(=O)n(CCCCN)c2n1` [compound 35, 8-(4-Aminobutyl)-6-(2-chloro-4-(6-methylpyridin-2-yl)phenyl)-2-((2-methoxy-4-morpholino-phenyl)amino)pyrido[2,3-d]pyrimidin-7(8H)-one], for which the “dTm 35” value was 0.1 °C on CK2a2; -1.4 °C on CaMK2b; 4.6 °C at EphA2; 2.7 °C on EphA4; 5.8 °C on EphA7; -3.5 °C at MYT1. For the same compound, the “dTm 35” value on PIM3 was -2.4 °C; on TLK1, -2.5 °C; at ULK3, 12.7 °C.
As for `COc1cc(N2CCN(C)CC2)ccc1Nc1ncc2cc(-c3ccc(-c4cccc(C)n4)cc3Cl)c(=O)n(CCCCN)c2n1` [compound 36, 8-(4-Aminobutyl)-6-(2-chloro-4-(6-methylpyridin-2-yl)phenyl)-2-((2-methoxy-4-(4-methylpiperazin-1-yl)phenyl)amino)pyrido[2,3-d]pyrimidin-7(8H)-one], the “dTm 36” value on CK2a2 was -0.5 °C; on CaMK2b it was -0.6 °C; at EphA2, 2.4 °C; at EphA4, 2.4 °C; at EphA7, 5.0 °C; on MYT1 it was -2.8 °C. For the same compound, the “dTm 36” value on PIM3 is -2.1 °C; at TLK1, -1.9 °C; on ULK3, 8.9 °C.

Values taken from doi:10.1101/2023.11.24.568596v1 (biorxiv, 2023).
